# Results published in patent US5541174A, “Analgesic method” (priority 1995, dated 1996).
# Values joined by “and” are separate entries in the source; they are usually repeats but may differ in a detail not shown here. Equal entries are not always repeated.
# Assays:
# [1] = test system: acetic acid induced writhing in mice; assay: Acetic acid-induced writhing test; type: in vivo, ICR male mice
# [2] = test system: adjuvant-induced arthritic pain in rats; assay: Adjuvant-induced arthritic pain; type: in vivo, male Sprague-Dawley rats
# Method in brief: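 Male Sprague-Dawley rats (140-160 g, groups of 5-6) received intradermal tail-base 0.5 mg heat-killed Mycobacterium butyricum in paraffin oil. Vocalization was scored hourly for 5 h. ED50 with 95% limits by Litchfield-Wilcoxon.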
# [3] = test system: acetic acid-induced writhing mouse pain model; assay: Measurement of time of peak activity in the acetic acid-induced writhing mouse pain model; type: in vivo; settings: for duration of analgesic effect: Table VII
# Description: Groups of 10 ICR male mice (Taisho Pharmaceutical Co. Research Center) were used to study each dose of every compound. […] Number of writhes were counted for each mouse during a period of 10 to 20 min after acetic acid injection. Inhibitory percent was calculated by comparison with the number of writhes in the non-treated control, vehicle-treated, and acetic acid-injected group. The ED50 value and 95% confidence limits were calculated from the inhibitory percent by the method of Litchfield and Wilcoxon.
# (§1) All drugs were suspended with 5% gum arabic in saline solution or wetted with enough propylene glycol to give a final concentration of 4% propylene glycol and the wetted solid suspended in 1.4% polyvinyl alcohol in saline.
# [4] = test system: acetic acid-induced writhing mouse pain model; assay: Naloxone reversal of analgesia in the acetic acid-induced writhing mouse pain model; type: in vivo; settings: for reduction of induced analgesia by Naloxone: Table VIII; for ED50: p.o.
# Description: (§2) Groups of 10 ICR male mice (Taisho Pharmaceutical Co. Research Center) were used to study each dose of every compound. Ligands or complexes were administered orally or subcutaneously in 0.1 ml of vehicle per 10 g of body weight 30 minutes before the intrapertioneal injection of 0.1 ml of 0.7% acetic acid solution per 10 g of body weight. Number of writhes were counted for each mouse during a period of 10 to 20 min after acetic acid injection. Inhibitory percent was calculated by comparison with the number of writhes in the non-treated control, vehicle-treated, and acetic acid-injected group. The ED50 value and 95% confidence limits were calculated from the inhibitory percent by the method of Litchfield and Wilcoxon.
# as §1
# NaloxoneHCL (3 umol/kg. i.v., in saline, Endo Lab.) was administered 5
# min. before acetic acid injection.
# [5] = test system: acetic acid-induced writhing mouse pain model; assay: Comparison/potentiation of analgesic activity with morphine in the acetic acid-induced writhing mouse pain model; type: in vivo
# Description: as §2
# [6] = oral, 5% gum arabic, 0.006 mmol/kg
# [7] = oral, 5% gum arabic, 0.013 mmol/kg
smiles,measurement,setting,value
COc1ccc2c(c1)c(CC(=O)[O-])c(C)n2C(=O)c1ccc(Cl)cc1.COc1ccc2c(c1)c(CC(=O)[O-])c(C)n2C(=O)c1ccc(Cl)cc1.COc1ccc2c(c1)c(CC(=O)[O-])c(C)n2C(=O)c1ccc(Cl)cc1.COc1ccc2c(c1)c(CC(=O)[O-])c(C)n2C(=O)c1ccc(Cl)cc1.[Cu+2].[Cu+2] [Cu(II)2 (indomethacin)4],ED50,"[1]; oral, 5% gum arabic in saline",0.012 mmol/kg
same,analgesic effectiveness versus parent ligand,"[1]; oral, 5% gum arabic in saline",more effective than their parent ligands
same,% Inhibition,[1]; [6],33%
same,% Inhibition,[1]; [7],50%
same,% Inhibition,"[1]; oral, 5% gum arabic, 0.025 mmol/kg",73%
same,analgesic effectiveness versus parent ligand,"[1]; oral, PG-PVA",more effective than their parent ligands
same,ED50,"[1]; oral, PG-PVA in saline",0.002 mmol/kg
same,% Inhibition,"[1]; oral, PG-PVA, 0.001 mmol/kg",38%
same,% Inhibition,"[1]; oral, PG-PVA, 0.002 mmol/kg",53%
same,% Inhibition,"[1]; oral, PG-PVA, 0.004 mmol/kg",75%
same,ED50,"[1]; s.c., PG-PVA in saline",0.002 mmol/kg and 0.003 mmol/kg
same,% Inhibition,"[1]; s.c., PG-PVA, 0.002 mmol/kg",34%
same,% Inhibition,"[1]; s.c., PG-PVA, 0.003 mmol/kg",53%
same,% Inhibition,"[1]; s.c., PG-PVA, 0.006 mmol/kg",70%
same,ED50,"[2]; oral, 5% gum arabic in saline",0.007 mmol/kg
same,% Inhibition,"[2]; oral, 5% gum arabic, 0.003 mmol/kg",27%
same,% Inhibition,[2]; [6],47%
same,% Inhibition,[2]; [7],70%
same,ED50,"[2]; oral, PG-PVA in saline",0.002 mmol/kg
same,% Inhibition,"[2]; oral, PG-PVA, 0.001 mmol/kg",20%
same,% Inhibition,"[2]; oral, PG-PVA, 0.002 mmol/kg",40%
same,% Inhibition,"[2]; oral, PG-PVA, 0.003 mmol/kg",87%
same,ED50,"[2]; s.c., PG-PVA in saline",0.002 mmol/kg
same,% Inhibition,"[2]; s.c., PG-PVA, 0.001 mmol/kg",17%
same,% Inhibition,"[2]; s.c., PG-PVA, 0.002 mmol/kg",43%
same,% Inhibition,"[2]; s.c., PG-PVA, 0.003 mmol/kg",60%
same,Inhibition %,"[3]; 2 umol/kg p.o., 30 min",54%
same,Inhibition %,"[3]; 2 umol/kg p.o., 60 min",49%
same,Inhibition %,"[3]; 2 umol/kg p.o., 120 min",43%
same,Inhibition %,"[3]; 2 umol/kg p.o., 180 min",68%
same,Inhibition %,"[3]; 2 umol/kg p.o., 240 min",33%
same,duration of analgesic effect,[3],prolonged duration of analgesic effect
same,% Inhibition,"[4]; 0.5 umol/kg p.o., with Naloxone HCl 3 umol/kg i.v.",19%
same,% Inhibition,"[4]; 0.5 umol/kg p.o., without naloxone",43%
same,% Inhibition,"[4]; 1 umol/kg p.o., with Naloxone HCl 3 umol/kg i.v.",52%
same,% Inhibition,"[4]; 1 umol/kg p.o., without naloxone",62%
same,% Inhibition,"[4]; 2 umol/kg p.o., with Naloxone HCl 3 umol/kg i.v.",69%
same,% Inhibition,"[4]; 2 umol/kg p.o., without naloxone",76%
same,reduction of induced analgesia by Naloxone,[4],reduction
same,ED50,[4]; with Naloxone HCl 3 umol/kg i.v.,1.1 µmol/kg
same,ED50,[4]; without naloxone,0.6 µmol/kg
same,% Inhibition,"[5]; 0.5 umol/kg, orally",21%
same,% Inhibition,"[5]; 1.0 umol/kg, orally",46%
same,% Inhibition,"[5]; 2.0 umol/kg, orally",54%
same,potentiation of opioid analgesia,[5]; Table IX,potentiation of opioid analgesia
same,ED50,"[5]; complex alone, orally",1.5 µmol/kg
"CCN(CC)C(=S)[S-].CCN(CC)C(=S)[S-].[Cu+2] [Cu(II)(DDC)2, Bisdiethyldithiocarbamatocopper(II)]",Inhibition %,"[3]; 555 umol/kg s.c., 30 min",29%
same,Inhibition %,"[3]; 555 umol/kg s.c., 60 min",42%
same,Inhibition %,"[3]; 555 umol/kg s.c., 120 min",45%
same,Inhibition %,"[3]; 555 umol/kg s.c., 180 min",29%
same,duration of analgesic effect,[3],prolonged duration of analgesic effect
same,% Inhibition,"[4]; 555 umol/kg s.c., with Naloxone HCl 3 umol/kg i.v.",29%
same,% Inhibition,"[4]; 555 umol/kg s.c., without naloxone",45%
same,reduction of induced analgesia by Naloxone,[4],reduction
